The record followed here is article PMC11087554, “The STING agonist IMSA101 enhances chimeric antigen receptor T cell function by inducing IL-18 secretion” (Nature Communications, 2024).

This assay addresses T1, STING (stimulator of interferon genes) (Homo sapiens, UniProt Q86WV6).
T1 construct: gene STING1; endogenous STING in THP1-ISG-luc cells
Description: THP1-ISG-luc ISRE reporter assay with PFO permeabilisation; IFN-beta response lost in STING-KO THP1 cells. It counts as cell-based. For orientation: Reporter assays use an easily measured gene product as a stand-in for the process of interest.

Broadly, the EC50 is the concentration that produces a half-maximal response. Low values mean an effect from little substance, high ones a need for much substance.

T1 sequence (Q86WV6 whole entry, looked up): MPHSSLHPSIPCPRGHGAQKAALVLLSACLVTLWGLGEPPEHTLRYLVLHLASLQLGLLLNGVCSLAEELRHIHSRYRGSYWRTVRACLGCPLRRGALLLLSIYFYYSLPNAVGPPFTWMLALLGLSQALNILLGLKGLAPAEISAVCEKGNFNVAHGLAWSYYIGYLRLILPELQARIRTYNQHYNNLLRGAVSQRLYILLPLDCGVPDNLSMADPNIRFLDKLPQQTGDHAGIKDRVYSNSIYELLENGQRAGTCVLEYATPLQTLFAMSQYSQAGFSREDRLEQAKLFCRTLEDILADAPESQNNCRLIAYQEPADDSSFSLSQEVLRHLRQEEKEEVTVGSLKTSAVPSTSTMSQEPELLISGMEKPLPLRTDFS

Turning to IMSA101, the EC50 was in the range of 20 to 30 nM.
